Consider 5 molecules from patent publication US7429374B2, “Process for the measurement of the potency of glatiramer acetate” (Teva Pharmaceutical Industries, Ltd., priority 2001, dated 2008).

Test [1] has as its system GA RS-specific T cells. Put plainly: In vitro potency test: IL-2 secretion by GA RS-specific LN cells, ELISA, % potency relative to GA RS. Type of test: cell-based, female (SJLXBALB/C)F1 mice. Conditions: for Response of GA RS-specific T cells (IL-2 secretion), in words: primary culture of LN cells from mice immunized with 250 μg GA RS in CFA; for % Potency: specificity of GA RS-specific LN cells, antigens incubated overnight. How it is done: Mice were immunized with 250 μg GA RS in CFA. GA RS was produced as described in U.S. Pat. No. 5,800,808 or PCT International Publication No. WO 00/05250. The GA RS was chosen based on the chemical and biological properties being in the midrange of Copaxone® as described above. After 9-11 days, a primary culture of LN cells was prepared, and the cells were incubated with various concentrations of GA RS and with test samples. Following 18-21 hours of incubation at 37° C. in a humidified CO2 incubator, the culture media were collected and the level of IL-2 was measured by ELISA. The T-cell response to each DS batch were tested at two concentrations (within the linear range), and the % potency of the DS batch was calculated relative to that of the GA RS batch.
The GA RS emulsion was transferred into an insulin syringe. Then, 100 μl of the emulsion (250 μg GA per mouse) were injected into four footpads of each naive mouse (about 25 μl into each footpad). The immunized mice were used for the in vitro test 9-11 days following immunization.
The UV lamp was turned on 20 minutes before commencing work in the laminar hood and turned off when work began. Prior to placing any reagents under the hood, the working surface was cleaned with a 70% ethanol solution. Enriched DCCM1 medium was prepared. The enriched DCCM1 and the RPMI medium were pre-warmed at 37° C. prior to use. The mice were sacrificed by cervical dislocation. Each mouse was placed on its back and fastened to a support platform. The abdomen was sprayed with 70% alcohol and a middle incision was made (a 2 cm-long incision was usually sufficient). The skin was intersected towards the hind legs and LN was located from the hind and forelegs. The LN was transferred into a sterile petri dish containing about 5 ml sterile RPMI medium and the LN cells were teased out by a sterile syringe plunger. The sterile syringe was used to collect the cells' suspension from the petri dish (the collection of tissue debris was avoided by using sterile needles). The cells' suspension were transferred into a 50 ml sterile tube.
The cells were centrifuged at 200×g for 10 minutes at room temperature. The cells were re-suspended to a density of 1×10^7 cells/ml with enriched DCCM1.
The in vitro bioassay was performed in a 24-well, flat-bottomed tissue culture test plate at a final volume of 1 ml.
About 10-20 mg of, GA DS from the batch to be tested was weighed accurately and dissolved with ddH2O to 1.2 mg/ml. The OD minus blank of the solution was measured at 275 nm. The OD of the sample was adjusted to approx. 1.03 with ddH2O to obtain a stock solution of 1 mg/ml of GA. The stock solution of 100 μg/ml was prepared with enriched DCCM1 and filtered through a 0.2μ cellulose acetate filter. The stock solution was diluted to 10 and 20 μg/ml as described in Table 2 for the RS batch.
0.5 ml of each GA RS dilution, thus the final concentrations of GA RS in the wells were 25, 15, 10, 5, 2.5 and 1 μg/ml.
0.5 ml of each sample dilution, thus the final concentrations of the test sample in the well were 5 and 10 μg/ml.
The density of the cells was changed depending upon their response to GA. The cultures were kept at 37° C. in a humidified 5% CO2 incubator for 18-21 hrs. The plate was centrifuged at 200×g for 10 minutes at room temperature. The supernatants were collected into cryotubes. The supernatants were divided into working aliquots to avoid repeated freezing/thawing of the samples. The supernatants were stored at −20° C. for up to one week. The hood was cleaned with 70% ethanol solution and dried with Kim wipes. The gloves were removed and the hands were immediately washed with disinfectant.
All samples were tested in triplicate. […]
In general terms: An ELISA detects its analyte on a solid surface through an enzyme-linked reagent.

For test [2], the system named is exacerbating-remitting multiple sclerosis. Conditions: daily subcutaneous injections (Johnson, 1987); cited from earlier work.
Test [3] has as its system EAE. Conditions: 250 μg/mouse of GA in CFA; this mouse strain. How it is done: The control group in this experiment was injected with CFA alone. Ten days following immunization, LN cells were removed from the both groups of mice.
Test [4] concerns experimental autoimmune encephalomyelitis (EAE). Conditions: various animal species (Lando et al., 1979; Aharoni, 1993); cited from earlier work.

As to `OC[C@@H](O)[C@@H](O)[C@H](O)[C@H](O)CO` [mannitol], the “Response of GA RS-specific T cells (IL-2 secretion), in words” value (from here on “Response of GA RS-specific T cells”) in test [1] is given as “did not affect or interfere”.
For “MBP pp.87-99: the MBP immunodominant peptide pp. 87-99 (an encephalitogenic peptide) (SRPHLIRLFSRDA; UniProt P02686 87-99, looked up, fragment)”, in test [1], the “Response of GA RS-specific T cells” value is “did not respond” and the “% Potency” value stood at 0%.
Regarding Lysozyme: a non-relevant basic protein, in test [1], the “Response of GA RS-specific T cells” value was “not recognized” and the “% Potency” value turned out to be 0%.
For the molecule “L-glutamic acid polymer with L-alanine, L-lysine and L-tyrosine, acetate (salt) [GA]”, in test [2], the progression of disability entry is listed as “slow progression of disability” and the relapse rate entry is “reduce the relapse rate”. In test [3], the “blocking of EAE” value is “at least 80%”. Moreover, the “suppression of EAE” value in test [4] is “suppress”.

B1: Human MBP: human MBP (myelin basic protein) (protein, UniProt P02686 1-304, looked up)
Myelin basic protein: MGNHAGKRELNAEKASTNSETNRGESEKKRNLGELSRTTSEDNEVFGEADANQNNGTSSQDTAVTDSKRTADPKNAWQDAHPADPGSRPHLIRLFSRDAPGREDNTFKDRPSESDELQTIQEDSAATSESLDVMASQKRPSQRHGSKYLATASTMDHARHGFLPRHRDTGILDSIGRFFGGDRGAPKRGSGKDSHHPARTAHYGSLPQKSHGRTQDENPVVHFFKNIVTPRTPPPSQGKGRGLSLSRFSWGAEGQRPGFGYGGRASDYKSAHKGFKGVDAQGTLSKIFKLGGRDSRSGSPMARR
For B1, in test [1], the “Response of GA RS-specific T cells” value is “did not respond” and the “% Potency” value came out at 0%.
